From ChEMBL document CHEMBL1127611 (J Med Chem, 1994)

Target: T1, Vesicular acetylcholine transporter (Torpedo californica, UniProt P81721)
T1 sequence (P81721 whole entry): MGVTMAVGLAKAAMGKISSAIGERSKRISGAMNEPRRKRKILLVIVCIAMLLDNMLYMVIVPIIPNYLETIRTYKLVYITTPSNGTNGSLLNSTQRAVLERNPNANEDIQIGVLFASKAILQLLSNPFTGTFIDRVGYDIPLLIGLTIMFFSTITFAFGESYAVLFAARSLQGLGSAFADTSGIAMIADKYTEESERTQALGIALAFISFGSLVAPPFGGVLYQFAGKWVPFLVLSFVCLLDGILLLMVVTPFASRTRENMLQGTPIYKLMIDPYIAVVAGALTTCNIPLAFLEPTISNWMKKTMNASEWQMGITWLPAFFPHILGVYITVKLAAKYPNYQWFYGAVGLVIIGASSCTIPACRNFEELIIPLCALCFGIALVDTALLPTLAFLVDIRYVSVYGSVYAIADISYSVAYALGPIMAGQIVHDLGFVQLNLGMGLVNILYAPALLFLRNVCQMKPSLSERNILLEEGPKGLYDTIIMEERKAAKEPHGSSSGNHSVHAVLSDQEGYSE
Assay: In vitro binding affinity to vesamicol receptor using [3H]vesamicol.
Design: species or system Tetronarce californica

| SMILES | Ki [nM] |
| --- | --- |
| O[C@@H]1CCN(Cc2ccccc2I)C[C@H]1N1CCC(c2ccccc2)CC1 | 0.147 |
| O[C@@H]1CCN(Cc2ccc(I)cc2)C[C@H]1N1CCC2(CCc3ccccc32)CC1 | 0.8 |
| O[C@@H]1Cc2ccccc2C[C@H]1N1CCC2(C=Cc3c(Br)cccc32)CC1 | 0.212 |
| O[C@@H]1CCCC[C@H]1N1CCC2(CCc3ccccc32)CC1 | 7.59 |
| O[C@@H]1CCN(Cc2cccc(I)c2)C[C@H]1N1CCC2(CCCc3ccccc32)CC1 | 0.856 |
| O[C@@H]1Cc2ccccc2C[C@H]1N1CCC2(CC1)C(Br)=Cc1ccccc12 | 0.41 |
| O[C@@H]1Cc2ccccc2C[C@H]1N1CCC2(C=Cc3ccc(Br)cc32)CC1 | 1.4 |
| O[C@@H]1Cc2ccccc2C[C@H]1N1CCC2(C=Cc3cc(Br)ccc32)CC1 | 0.271 |
| O[C@@H]1CCN(Cc2ccccc2I)C[C@H]1N1CCC2(CCc3ccccc32)CC1 | 0.98 |
| O[C@@H]1CCN(Cc2cccc(I)c2)C[C@H]1N1CCC(c2ccccc2)CC1 | 0.063 |
| O[C@@H]1CCN(Cc2ccccc2I)C[C@H]1N1CCC2(CCCc3ccccc32)CC1 | 5.8 |
| O[C@@H]1CCN(Cc2ccc(I)cc2)C[C@H]1N1CCC(c2ccccc2)CC1 | 0.05 |
| O[C@@H]1CCN(Cc2ccc(F)cc2)C[C@H]1N1CCC2(CCCc3ccccc32)CC1 | 2.64 |
| O[C@@H]1CCN(Cc2cccc(I)c2)C[C@H]1N1CCC2(C=Cc3ccccc32)CC1 | 0.264 |
| O[C@@H]1CCN(Cc2ccccc2I)C[C@H]1N1CCC2(C=Cc3ccccc32)CC1 | 0.798 |
| O[C@@H]1CCN(Cc2ccc(I)cc2)C[C@H]1N1CCC2(CCCc3ccccc32)CC1 | 0.638 |
| O[C@@H]1CCCC[C@H]1N1CCC2(C=Cc3ccccc32)CC1 | 6.93 |
| Nc1cccc2c1C[C@@H](N1CCC(c3ccccc3)CC1)[C@H](O)C2 | 0.0065 |
| O[C@@H]1CCN(Cc2ccc(F)cc2)C[C@H]1N1CCC2(CCc3ccccc32)CC1 | 0.36 |
| O[C@@H]1Cc2ccccc2C[C@H]1N1CCC2(CCCc3ccccc32)CC1 | 18.4 |
| O[C@@H]1Cc2ccccc2C[C@H]1N1CCC2(CCc3ccccc32)CC1 | 0.36 |
| O[C@@H]1Cc2ccccc2C[C@H]1N1CCC2(C=Cc3ccccc32)CC1 | 0.121 |
| O[C@@H]1CCCC[C@H]1N1CCC2(CCCc3ccccc32)CC1 | 24.2 |
| O[C@@H]1CCN(Cc2ccc(F)cc2)C[C@H]1N1CCC2(C=Cc3ccccc32)CC1 | 0.248 |
| O[C@@H]1CCN(Cc2ccc(I)cc2)C[C@H]1N1CCC2(C=Cc3ccccc32)CC1 | 0.762 |
